Our source for the IC50 values is ChEMBL document CHEMBL1127893, “Bisindolylmaleimide inhibitors of protein kinase C. Further conformational restriction of a tertiary amine side chain” (Bioorg Med Chem Lett, 1994).

For one test, the target named is Phosphorylase kinase. Put plainly: Inhibition of phosphorylase kinase (PhK). It counts as protein-complex assay.
In test [1] the target is T1, Protein kinase C beta type (Rattus norvegicus, UniProt P68403). Nature of the test: Inhibition of Protein kinase C beta 1.
T1 sequence (P68403 whole entry): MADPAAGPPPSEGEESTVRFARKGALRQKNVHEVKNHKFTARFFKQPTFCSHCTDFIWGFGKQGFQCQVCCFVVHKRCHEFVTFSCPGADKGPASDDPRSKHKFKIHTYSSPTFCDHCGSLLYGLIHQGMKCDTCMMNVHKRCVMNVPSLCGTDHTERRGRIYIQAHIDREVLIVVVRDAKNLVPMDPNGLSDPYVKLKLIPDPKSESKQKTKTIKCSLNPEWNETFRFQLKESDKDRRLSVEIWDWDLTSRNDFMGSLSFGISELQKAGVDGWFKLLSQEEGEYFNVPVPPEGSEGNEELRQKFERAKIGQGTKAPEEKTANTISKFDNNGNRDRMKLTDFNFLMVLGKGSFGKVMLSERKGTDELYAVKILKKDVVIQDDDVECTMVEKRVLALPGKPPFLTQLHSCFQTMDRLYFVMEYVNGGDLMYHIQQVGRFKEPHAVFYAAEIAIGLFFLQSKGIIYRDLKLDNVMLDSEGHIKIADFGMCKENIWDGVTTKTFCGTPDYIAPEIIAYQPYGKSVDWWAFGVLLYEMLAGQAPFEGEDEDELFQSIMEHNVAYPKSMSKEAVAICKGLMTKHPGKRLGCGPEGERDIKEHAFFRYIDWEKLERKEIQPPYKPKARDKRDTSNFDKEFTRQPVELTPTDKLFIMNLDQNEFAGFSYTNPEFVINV
The target of test [2] is T1, Protein kinase C beta type. Nature of the test: Inhibition of Protein kinase C beta.
Test [3] has as its target cAMP-dependent protein kinase (PKA) (Homo sapiens, UniProt P22694+P17612+P22612). Nature of the test: Inhibition of cyclic AMP dependent protein kinase A (PKA). In kind it is protein assay.
Test [4] addresses Protein kinase C alpha type (Rattus norvegicus, UniProt P05696). Nature of the test: Inhibition of Protein kinase C alpha.
Test [5] addresses T2, Protein kinase C epsilon type (Rattus norvegicus, UniProt P09216).
T2 sequence (P09216 whole entry): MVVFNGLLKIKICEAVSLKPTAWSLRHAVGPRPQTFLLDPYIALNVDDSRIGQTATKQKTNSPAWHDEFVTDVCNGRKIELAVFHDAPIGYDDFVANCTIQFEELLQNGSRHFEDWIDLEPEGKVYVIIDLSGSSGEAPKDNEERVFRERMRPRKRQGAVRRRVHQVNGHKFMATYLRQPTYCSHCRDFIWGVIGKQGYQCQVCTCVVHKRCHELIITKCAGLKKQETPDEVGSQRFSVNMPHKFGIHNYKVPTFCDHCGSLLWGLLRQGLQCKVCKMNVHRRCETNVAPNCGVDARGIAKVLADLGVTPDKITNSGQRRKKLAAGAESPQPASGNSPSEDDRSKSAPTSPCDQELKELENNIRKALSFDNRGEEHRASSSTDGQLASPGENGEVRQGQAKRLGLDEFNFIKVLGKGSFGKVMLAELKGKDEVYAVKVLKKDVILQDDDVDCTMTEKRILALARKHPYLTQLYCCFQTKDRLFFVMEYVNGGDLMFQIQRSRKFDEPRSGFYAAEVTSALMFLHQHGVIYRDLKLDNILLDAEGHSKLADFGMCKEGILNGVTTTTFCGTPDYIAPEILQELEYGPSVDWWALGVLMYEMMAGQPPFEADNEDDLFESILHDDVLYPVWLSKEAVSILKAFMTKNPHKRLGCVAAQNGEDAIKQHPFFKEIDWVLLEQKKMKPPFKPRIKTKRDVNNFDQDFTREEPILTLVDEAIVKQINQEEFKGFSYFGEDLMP
Nature of the test: Inhibition of Protein kinase C epsilon.

Test [6] addresses Protein kinase C (PKC). Nature of the test: Inhibition of protein kinase C from rat brain (PKC).
Test [7] addresses Protein kinase C (PKC). Nature of the test: Inhibition of protein kinase C (PKC). It counts as protein assay.
The target of test [8] is Protein kinase C gamma type (Rattus norvegicus, UniProt P63319). Nature of the test: Inhibition of Protein kinase C gamma (PKC).

Molecules are shown by their SMILES. pIC50: −log10 of the molar value.

Regarding `CN1C[C@@H]2Cn3c(c(C4=C(c5cn(C)c6ccccc56)C(=O)NC4=O)c4ccccc43)C[C@H]2C1.Cl` (stereo in doubt; form 1), the pIC50 was 5.77 at Phosphorylase kinase; 8.28 in [1]; 8.17 in test [2]; 8.55 in test [4]; 7.32 in test [5]; 8.27 in [8]. Also, the 50% inhibitory concentration (IC50) worked out at 2.8 µM in [3], 0.0068 µM at Protein kinase C (PKC) [6] and 0.005 µM against Protein kinase C (PKC) [7].
On to `CN1C[C@@H]2Cn3c(c(C4=C(c5cn(C)c6ccccc56)C(=O)NC4=O)c4ccccc43)C[C@H]2C1.Cl` (stereo in doubt; form 2), for which, on Phosphorylase kinase, the negative logarithm of the IC50 (pIC50) is 5.42. The concentration for half-maximal inhibition (IC50) in test [3] is 5.5 µM; on Protein kinase C (PKC) [7], 0.008 µM.
Turning to `CN(C)C[C@H]1CCn2c(c(C3=C(c4cn(C)c5ccccc45)C(=O)NC3=O)c3ccccc32)C1` [RO-320432], the pIC50 at Phosphorylase kinase was 4.81; in test [1], 7.55; in test [2], 7.52; in [4], 8.06; in test [5], 6.98; in test [8], 7.44. Moreover, the concentration for half-maximal inhibition (IC50) in [3] worked out at 223.375 µM; at Protein kinase C (PKC) [6], 0.021 µM.

Broadly, the pIC50 is the IC50 on a negative log10 scale, so that one unit is a factor of ten. Low values mean a high IC50, high ones a low IC50. Usually IC50 stands for the concentration needed to halve the response being measured. Read a low IC50 as greater potency.
